Laboratory results reported in article PMC10177262, “A Novel CD206 Targeting Peptide Inhibits Bleomycin-Induced Pulmonary Fibrosis in Mice” (Cells, 2023).
Entries after “also recorded” stand apart in the source; their conditions may differ. No end group written: not given here.

Columns and labels:
[1] = tested on: M1-polarized bone marrow-derived macrophages (BMDM); assay: Live/Dead cell viability assay, M1 macrophages; assay type: cell-based, murine (C57BL/6 mice); details: 48 h, 0–100 μM
Description: (§1) BMDM cells were isolated as described previously. Briefly, murine monocyte precursor cells were obtained by flushing out the bone marrow from the femur bones of 6–8-week-old healthy C57BL/6 mice. These precursor cells were then differentiated into M1 macrophages using 20 ng/mL of M-CSF and 20 ng/mL of IFN-γ and into M2 macrophages using 20 ng/mL of M-CSF and 20 ng/mL of IL-4 [29]. Human fetal lung fibroblast cell lines MRC5, IMR90, and IMR9 were purchased from the American Type Culture Collection (ATCC, Manassas, VA, USA) and were cultured according to ATCC protocols.
(§2) Cell viability dose-response curves were determined using the Live/Dead Viability/Cytotoxicity Kit (Thermo Fisher Scientific, Waltham, MA, USA, Cat# L3224) using the manufacturer’s protocol. Macrophages were seeded onto glass-bottom 96-well plates and polarized into M1 or M2 populations. Cells were treated with different concentrations of RP-832c for 48 h. After drug treatment, a 100 μL mixture of 2 μM calcein-AM and 4 μM ethidium homodimer was added and incubated for 1 h. The images were taken and analyzed as described in the immunofluorescence assay section below. A total of 200 cells were counted manually from three different random 20× regions across three technical replicates, and the percentage of alive cells was calculated using GraphPad Prism version 8.0. […]

[2] = Toxicity study: body and organ weights, blood count, blood chemistry
[3] = tested on: IMR9 human fetal lung fibroblast cell line; assay: Cytotoxicity in lung fibroblasts IMR9 / IMR91; assay type: cell-based; details: 1μM - 100μM; three independent experiments in triplicate
Description: (§3) The RP-832c (RWKFGGFKWR) peptide was synthesized by PolyPeptide Laboratories, San Diego, CA, USA. BMDM cells were isolated and polarized as described previously. The cell viability of RP-832c-treated macrophages was determined using the live/dead viability assay as previously described. Human fetal lung fibroblast cell lines MRC5, IMR90, and IMR9 were purchased from the American Type Culture Collection (ATCC, Manassas, VA, USA) and were cultured according to ATCC protocols.
as §1, with “Human fetal lung fibroblast cell lines MRC5, IMR90, and IMR9 were purchased from the American Type Culture Collection (ATCC, Manassas, VA, USA) and were cultured according to ATCC protocols.” left out
(§4) Cell viability dose-response curves were determined using the Live/Dead Viability/Cytotoxicity Kit (Thermo Fisher Scientific, Waltham, MA, USA, Cat# L3224) using the manufacturer’s protocol. […] The images were taken and analyzed as described in the immunofluorescence assay section below. A total of 200 cells were counted manually from three different random 20× regions across three technical replicates, and the percentage of alive cells was calculated using GraphPad Prism version 8.0. […]

[4] = tested on: M2-polarized bone marrow-derived macrophages (BMDM); assay type: cell-based, murine (C57BL/6 mice); details: 48 h
Description: as §1, §2

[5] = matrix and method not stated; no reference given; cited from earlier work
Description: It is evident from various studies that macrophages are indispensable in tissue repair and subsequent fibrotic changes. […] M1 macrophages initiate host defense responses against pathogens by generating reactive nitric oxide (NO) via inducible nitric oxide synthase (iNOS), and by releasing proinflammatory cytokines and chemokines such as IL-1β, IL-12, IL-23, CCL2, and TNF-α. Meanwhile, M2 macrophages contribute to the pathogenesis of fibrosis ...

[6] = tested on: MRC5 human fetal lung fibroblast cell line; assay: Cytotoxicity in lung fibroblasts MRC5; assay type: cell-based
Description: as §3
as §1, with “Human fetal lung fibroblast cell lines MRC5, IMR90, and IMR9 were purchased from the American Type Culture Collection (ATCC, Manassas, VA, USA) and were cultured according to ATCC protocols.” left out
as §4

CD206 in lung tissue = assay: IHC staining of CD206 in lungs of BLM-treated mice; assay type: in vivo, mouse; details: n=3 mice; vs naïve
Description: At the end of the study, the mice were sacrificed using CO2 followed by cervical dislocation (according to IACUC guidelines), and the lungs were collected and fixed in 10% formalin. After 48 h of fixation, the lungs were processed into tissue sections. The tissue sections were stained with both Hematoxylin/Eosin (H&E) (Sigma Aldrich, Burlington, MA, USA) and Masson Trichrome (Abcam, Waltham, MA, USA). Immunostaining was performed with the anti-CD206 (AF2535, 5 ug/mL, R&D Biosciences), TGF-β1 (MAB1835, 10 ug/mL, R&D Biosciences), and α-SMA (MAB1420, 10 ug/mL, R&D Biosciences, Minneapolis, MN, USA) antibodies as previously described. All slides were scanned using a Leica Aperio SC2 scanner and blindly evaluated by two independent pathologists. A total of 10 representative fields of 20× IHC images per tissue section were individually analyzed for the total number of cells/area using a confocal microscope (Olympus, New York, NY, USA). All quantitative data were normalized to appropriate control images.
We first sought to perform in silico validation of CD206 expression at various time points in both bleomycin-treated rat (GSE48455) and mouse models (GSE40151). […] Thus, the BLM model appears to be an appropriate model to determine the role of CD206 in lung fibrosis. […]
by different concentrations (0μM - 100μM) of RP-832c. […]

[7] = molecular target: T1, CD206 (macrophage mannose receptor) (UniProt P22897); assay: SPR
T1 chain: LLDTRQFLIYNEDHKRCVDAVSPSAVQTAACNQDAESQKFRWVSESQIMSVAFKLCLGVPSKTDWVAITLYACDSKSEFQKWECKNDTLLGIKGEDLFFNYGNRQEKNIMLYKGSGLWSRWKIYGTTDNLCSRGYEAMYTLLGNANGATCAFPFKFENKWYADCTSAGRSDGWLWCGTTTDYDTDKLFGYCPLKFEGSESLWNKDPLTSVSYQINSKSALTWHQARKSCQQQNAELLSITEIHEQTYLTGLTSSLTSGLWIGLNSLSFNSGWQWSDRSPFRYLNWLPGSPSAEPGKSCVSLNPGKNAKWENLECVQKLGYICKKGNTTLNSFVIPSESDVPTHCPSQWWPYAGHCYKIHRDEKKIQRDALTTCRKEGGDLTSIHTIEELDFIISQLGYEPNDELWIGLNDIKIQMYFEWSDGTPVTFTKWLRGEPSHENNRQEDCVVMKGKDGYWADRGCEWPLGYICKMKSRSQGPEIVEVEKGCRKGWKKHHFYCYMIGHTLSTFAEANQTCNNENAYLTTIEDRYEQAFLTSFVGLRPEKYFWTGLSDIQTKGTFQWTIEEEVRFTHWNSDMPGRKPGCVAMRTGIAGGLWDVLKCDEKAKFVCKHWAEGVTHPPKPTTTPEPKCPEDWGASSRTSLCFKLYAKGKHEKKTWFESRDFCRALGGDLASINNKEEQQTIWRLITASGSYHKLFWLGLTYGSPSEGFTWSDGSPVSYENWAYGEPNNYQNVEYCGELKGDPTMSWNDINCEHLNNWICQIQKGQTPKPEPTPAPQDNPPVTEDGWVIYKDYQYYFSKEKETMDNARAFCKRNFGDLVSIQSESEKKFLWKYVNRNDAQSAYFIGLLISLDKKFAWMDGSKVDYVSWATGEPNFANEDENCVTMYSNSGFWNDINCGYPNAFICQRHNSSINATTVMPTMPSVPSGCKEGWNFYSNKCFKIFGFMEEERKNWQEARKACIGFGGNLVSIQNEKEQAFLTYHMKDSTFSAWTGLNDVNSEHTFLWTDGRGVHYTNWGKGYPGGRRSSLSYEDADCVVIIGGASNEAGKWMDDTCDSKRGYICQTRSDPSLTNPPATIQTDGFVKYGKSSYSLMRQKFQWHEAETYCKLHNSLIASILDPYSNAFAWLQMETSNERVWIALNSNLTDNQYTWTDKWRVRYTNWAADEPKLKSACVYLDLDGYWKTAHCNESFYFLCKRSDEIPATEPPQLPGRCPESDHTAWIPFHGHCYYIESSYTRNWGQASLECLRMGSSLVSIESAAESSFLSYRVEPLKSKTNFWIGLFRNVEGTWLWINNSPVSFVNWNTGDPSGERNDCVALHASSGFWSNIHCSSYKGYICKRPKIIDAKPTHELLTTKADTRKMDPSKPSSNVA

RWKFGGFKWR [RP-832c]
cytotoxicity in M1 macrophages [1]: only minimal cytotoxicity
AST, Mean Difference ([2]; 50 mg/kg vs saline, p 0.1237): −48.8
Phosphorus, Mean Difference ([2]; 50 mg/kg vs saline, p 0.2623): -1.1 mg/dL
BUN, Mean Difference ([2]; 50 mg/kg vs saline, p 0.3087): 1.6 mg/dL
Albumin, Mean Difference ([2]; 50 mg/kg vs saline, p 0.3982): 0.2 g/dL
Globulin, Mean Difference ([2]; 50 mg/kg vs saline, p 0.4413): 0.1 g/dL
Total Protein, Mean Difference ([2]; 50 mg/kg vs saline, p 0.5797): 0.3 g/dL
Creatinine, Mean Difference ([2]; 50 mg/kg vs saline, p not given): 0.0 mg/dL
body weight ([2]; 50mg/kg, CD1 mice, vs vehicle): did not have any significant effect on body weight
Creatinine ([2]; 50 mg/kg, n = 10, saline n = 5: 0.2 ± 0): 0.2 ± 0 mg/dL
Globulin ([2]; 50 mg/kg, n = 10, saline n = 5: 2.6 ± 0.5): 2.7 ± 0.2 g/dL
Albumin ([2]; 50 mg/kg, n = 10, saline n = 5: 2.9 ± 0.3): 3.1 ± 0.3 g/dL
Total Protein ([2]; 50 mg/kg, n = 10, saline n = 5: 5.6 ± 0.8): 5.9 ± 0.5 g/dL
Phosphorus ([2]; 50 mg/kg, n = 10, saline n = 5: 8.8 ± 2.4): 7.7 ± 0.5 mg/dL
BUN ([2]; 50 mg/kg, n = 10, saline n = 5: 22.4 ± 3.4): 24.0 ± 4.3 mg/dL
ALT ([2]; 50 mg/kg, n = 10, saline n = 5: 35.8 ± 18.9): 27.2 ± 10 U/L
AST ([2]; 50 mg/kg, n = 10, saline n = 5: 140.0 ± 75.5): 91.2 ± 21.7 U/L
body weight, organ weights, complete blood count and blood chemistry ([2]; 50 mg/kg, vs vehicle): no apparent toxicities observed; also recorded: No significant differences were observed
complete blood cell count ([2]; 50 mg/kg, vs vehicle): does not significantly affect the complete blood cell count
organ weights ([2]; 50 mg/kg, vs vehicle): lacks any significant
cytotoxicity against IMR9 (IMR91) fibroblasts [3]: did not show cytotoxicity; also recorded: lacking any cytotoxicity
IC50 [4]: ~6 µM
half-life compared to RP-182 [5]: increased half-life compared to RP-182
stability compared to RP-182 [5]: enhanced stability
cytotoxicity against MRC5 fibroblasts ([6]; 1μM - 100μM, three independent experiments in triplicate): did not show cytotoxicity; also recorded: lacking any cytotoxicity
proliferation of fibroblast cell lines ([6]; multiple fibroblast cell lines cultured in vitro): did not observe any significant effect on the proliferation of multiple fibroblast cell lines; also recorded: did not observe direct inhibitory effects on the fibroblast cell lines

bleomycin
CD206 expression in lungs of BLM-treated mice (IHC) (CD206 in lung tissue): upregulated

RWKFGGFKWR [RP-832c]
Kd [7]: ~3.5 µM
